Laboratory results published in US6818620B2, “Synthetic compounds and compositions with enhanced cell binding” (The Regents of the University of California, priority 1991, dated 2004).
“Also recorded” adds a separate entry of the source. No end group written: not given here.

Columns and labels:
[1] = tested on: fibroblast cells from 19-week fetal human dermis; test: Binding of fibroblast cells to collagen- or peptide-coated glass coverslips and dishes (Example 1); assay type: cell-based; conditions: for Concentration of Cells (Relative Binding of Cells After 15 Minutes): coverslips coated with 50 μl of 1 mg/ml solution, approximately 100,000 fibroblast cells
Method: All media and supplies for tissue culture were obtained from University of California San Francisco Tissue Culture Facility. Cycloheximide was purchased from Sigma Biochemicals, St. Louis, Mo. Rat tail tendon collagen was purified to homogeneity and characterized in our laboratory using published methods. Tissue culture dishes (35 mm diameter, Falcon Plastics) were coated with collagen dissolved in 0.01 N acetic acid to a concentration of 10 μg/ml. The dishes were allowed to air dry overnight under ultraviolet light to maintain sterility. Primary cultures of fibroblast cells from 19-week fetal human dermis were obtained. The cultures were maintained in Eagles minimum essential medium with Earle's salts supplemented with 10% fetal bovine serum. All cells used were in the second passage and were obtained from confluent cultures. Prior to release and dispersion with trypsin, the cells were rinsed three times with phosphate buffered saline. The cell layers were exposed for two minutes to 0.05% trypsin, 0.02% NaEDTA in phosphate buffered saline, and rinsed with serum free medium. Glass coverslips (12-15) were washed in a cleaning solution overnight then rinsed with large amounts of distilled water. The coverslips were then sterilized by drying between sheets of filter paper in an oven at high temperature. The coverslips were then placed in small culture dishes under sterile conditions. A solution of collagen in acetic acid (1 mg/ml) was prepared. Fifty microliters of solution was placed on each of four coverslips, which were then dried in air overnight. A solution of the peptide in acetic acid (1 mg/ml) was prepared. Four coverslips were treated with 50 μl of the solution and then dried as described above. Approximately 100,000 fibroblast cells were pipetted onto four control coverslips and dishes, four collagen coated coverslips and dishes, and four peptide coated coverslips and dishes. After 15 minutes, excess medium containing floating cells was removed from each dish. Fresh medium was added and the dishes were examined under a microscope to determine the extent of binding of cells to the respective coverslips. If the number of bound cells appeared to be different, an assay for DNA in the cells attached to each coverslip was performed. The cells were counted using a hemocytometer.

[2] = tested on: binding of cells to collagen; test: Inhibition of cell binding (attachment) to collagen substrates by peptides added to the medium (Example 2); assay type: cell-based, human; conditions: for % Inhibition of Cell Attachment / % of Maximal Cell Attachment: collagen substrates; for effect on the binding of cells to collagen (in words): equimolar concentrations of several peptides
Method: All media and supplies for tissue culture were obtained from University of California San Francisco Tissue Culture Facility. Cycloheximide was purchased from Sigma Biochemicals, St. Louis, Mo. Rat tail tendon collagen was purified to homogeneity and characterized in our laboratory using published methods. Tissue culture dishes (35 mm diameter, Falcon Plastics) were coated with collagen dissolved in 0.01 N acetic acid to a concentration of 10 μg/ml. The dishes were allowed to air dry overnight under ultraviolet light to maintain sterility.
Primary cultures of fibroblast cells from 19-week fetal human dermis were obtained. The cultures were maintained in Eagles minimum essential medium with Earle's salts supplemented with 10% fetal bovine serum. All cells used were in the second passage and were obtained from confluent cultures. Prior to release and dispersion with trypsin, the cells were rinsed three times with phosphate buffered saline. The cell layers were exposed for two minutes to 0.05% trypsin, 0.02% NaEDTA in phosphate buffered saline, and rinsed with serum free medium.
Collagen related, but non-inventive peptides, (Pro-Pro-Gly)10 and (Pro-Hyp-Gly)10 (wherein Hyp is hydroxy-proline), were obtained from Peninsula Laboratory, Belmont, Calif. Polyproline was purchased from Sigma Biochemicals, St. Louis, Mo. Dynorphin 1-13 and human preangiotensinogen 1-14 were purchased from Bachem, Torrance, Calif. Three different fibronectin related peptide sequences were also obtained from Bachem and were used without further analysis.
The inventive peptide (SEQ ID NO:1) was synthesized as described in Example 1 and the same procedures and conditions of Example 1 were used herein.
In this experiment to examine the effect of various additives on binding, the additives were added in the medium containing the cells before being transferred to the dishes for the binding assay. It was observed that cell binding to collagen proceeds rapidly in the beginning of the experiment but then slows down after approximately 30 minutes and approximately 70-80% of the cell binding in the absence of a peptide occurs during this time. The effect of the peptide inhibitor on the initial rate of the binding reaction between cells and collagen was examined. The effects of various conditions on cell binding to collagen after 30 minutes were usually compounded.
All peptides used had small inhibitory effects on cell binding, although none reached the level of inhibition observed with the inventive peptide. […] Under the conditions of these experiments, polyproline and (PPG)10 exist as single chains in polyproline conformation whereas (P-Hyp-G)10 is a triple helix. The behavior of dynorphin 1-13 and preangio-tensinogen 1-14, peptides similar in size to the inventive peptide, on cell binding was also examined.

cells [3] = test: Relative cell-binding activity of synthetic peptides (relative to the SEQ ID NO:1 peptide / P-15, or to collagen); assay type: cell-based; conditions: for Relative Cell-Binding Activity: relative to the inventive peptide illustrated in Examples 1 and 2 (SEQ ID NO:1)
Method: Several more synthetic peptides were prepared and tested for cell binding activity (relative to the SEQ ID NO:1 peptide) all of which have the β-bend feature and which have excellent cell binding activity.
The relative efficiencies of some synthetic peptides of this invention for cell-binding activity (relative to the inventive peptide illustrated in Examples 1 and 2) are set out in Table 4.

[4] = tested on: peripheral blood CD4 and CD8 lymphocytes; test: Inhibition of T-cell binding to collagen-coated dishes (Example 7); assay type: cell-based; conditions: rat tail type I collagen-coated dishes, serum free medium
Method: Cultured T-cells were incubated in collagen-coated dishes in serum free medium, in the presence and absence of inventive peptides. […] Inhibition was examined at several concentrations and times. Maximal inhibition by the peptides occurred at 30 minutes at 37 ? C at a concentration of 35 μM. Thus, the molecular site on type I collagen involved in the interaction with T-cells appears to be the same as involved in fibroblast binding.

dermal fibroblasts = test: Induction of metalloproteinases and osteodifferentiation in dermal fibroblasts; assay type: cell-based
Source text: This activity is useful for resolving fibrosis. […] This is confirmed by the induction of the following genes: type I collagen, collagenase, alkaline phosphatase, osteonectin, transforming growth factor β (TGF-β), and osteogenin (bone morphogenic protein, […]). These studies confirm that the inventive peptides mimic the biological activity of collagen by binding to specific receptors and inducing biochemical processes characteristic of those induced by collagen itself.

fibroblast cells = test: Fibroblast growth and migration into agarose gel containing peptide (Example 3); assay type: cell-based; conditions: 100 μg peptide in agarose gel (2 mg/ml); 100,000-200,000 fibroblast cells; 72 hours after plating
Method: Referring to FIGS. 1 and 2, a prior art agarose gel was prepared with an agarose concentration of 2 mg/ml and between 100,000-200,000 fibroblast cells were placed on the gel surface. The agarose gel had been prepared with a suitable fibroblast cell growth medium and the cells placed on the agarose gel were treated with growth medium; however, the cells died within 48 hours, as is illustrated by the FIG. 1 photograph. […] The fibroblast population continued to grow rapidly until cells filled the lattice of the gel.
Different concentrations of the inventive peptides in hydrogels were studied. […] Different types of cells appear to prefer different inventive peptide concentrations in hydrogels, probably due to differences in receptor densities, but in general about 100 μg/ml will be effective.

cells [5] = test: Relative cell-binding activity of synthetic peptides (relative to the SEQ ID NO:1 peptide / P-15, or to collagen); assay type: cell-based

In the case of “Collagen: Rat tail tendon collagen purified to homogeneity [reference compound]”, the “Concentration of Cells (Relative Binding of Cells After 15 Minutes)” value ([1]; 15 minutes) is reported as 8.59.
Dynorphin 1-13 (YGGFLRRIRPKLK) was tested, and the “% Inhibition of Cell Attachment” value ([2]; peptide 35 × 10^−6M) was 19%, the “% of Maximal Cell Attachment” value ([2]; peptide 35 × 10^−6M) was 81% and the “effect on the binding of cells to collagen (in words)” value (shortened to “effect on the binding of cells”) [2] was “did not affect the binding of cells to collagen to the extent shown by the inventive peptide”.
FGIAGF [SEQ ID NO:5] was tested, and the “cell binding activity compared with P-15 region / SEQ ID NO:1 peptide (in words)” value (cells [3]) was “cell binding activity comparable to that of the peptides of SEQ ID NO: 1, 2, and 3” and the “Relative Cell-Binding Activity” value (cells [3]) was 87.
In the case of GPQGIAGQR [SEQ ID NO:2], the “cell binding activity compared with P-15 region / SEQ ID NO:1 peptide (in words)” value (cells [3]) is reported as “equally as active as the entire P-15 region”, the “Relative Cell-Binding Activity” value (cells [3]) is reported as 100 and the “inhibition of interactions between T-cells and collagen” value [4] is reported as “markedly inhibited”.
With GTPGPQGIAGQRGVV [SEQ ID NO:1] the “inhibition of interactions between T-cells and collagen” value [4] was “markedly inhibited”, the “% Inhibition of Cell Attachment” value ([2]; peptide 7.2 × 10^−6M) was 85% and the “% of Maximal Cell Attachment” value ([2]; peptide 7.2 × 10^−6M) was 15%. The “% Inhibition of Cell Attachment” value ([2]; peptide 36 × 10^−6M) was 88%, the “% of Maximal Cell Attachment” value ([2]; peptide 36 × 10^−6M) was 12% and the “effect on the binding of cells” value [2] was “potent inhibitor of the binding of cells to collagen”. For the same substance, the induction of metalloproteinases (dermal fibroblasts; dermal fibroblasts) was “induces metalloproteinases”, the “osteodifferentiation (induction of type I collagen, collagenase, alkaline phosphatase, osteonectin, TGF-β, BMP-7 genes)” value (dermal fibroblasts; in composites with hydroxyapatite, non-osteoblastic (dermal) fibroblasts) was “causes osteodifferentiation” and the “fibroblast growth and migration into agarose gel” value (fibroblast cells) was “the cells not only grew, but actually migrated into the gel itself”. For the same substance, the “increase in cell binding over collagen-coated dishes” value ([1]; 15 minutes) was 40%, the “increase in cell binding over the control (no collagen or peptide) dishes” value ([1]; 15 minutes) was 60% and the “Concentration of Cells (Relative Binding of Cells After 15 Minutes)” value ([1]; 15 minutes) was 11.05. The “potency relative to collagen in binding cells to glass or to polystyrene” value ([1]; various other similar studies) was “at least twice as potent as collagen”.
With “Gln-Gly-Ile-Ala-Gly (QGIAG; OTHER INFORMATION: synthetic peptide) [SEQ ID NO:8]” the “cell-binding activity (relative to the SEQ ID NO:1 peptide)” value (cells [3]) was 42% and the “cell binding enhancement with respect to collagen (in words)” value (cells [5]) was “slightly enhanced with respect to collagen, but not significantly enhanced; also recorded: not significantly enhanced with respect to collagen”.
In the case of “Gly-Ile-Ala-Gly (FGIAGF; OTHER INFORMATION: synthetic peptide) [SEQ ID NO:9]”, the “cell binding enhancement with respect to collagen (in words)” value (cells [5]) is reported as “not significantly enhanced with respect to collagen”.
In the case of “Gly—Ile—Ala—Gly—Gln (GIAGQ; OTHER INFORMATION: synthetic peptide) [SEQ ID NO:6]”, the “cell-binding activity (relative to the SEQ ID NO:1 peptide)” value (cells [3]) is reported as 70% and the “Relative Cell-Binding Activity” value (cells [3]) is reported as 70.
For Polyproline, the “% Inhibition of Cell Attachment” value ([2]; peptide 1.7 × 10^−6M) was 10%, the “% of Maximal Cell Attachment” value ([2]; peptide 1.7 × 10^−6M) was 90% and the “effect on the binding of cells” value [2] was “did not significantly affect the binding of cells”.
QGAIAQ [SEQ ID NO:7] was tested, and the “Relative Cell-Binding Activity” value (cells [3]) was 70.
QGIAGQ [SEQ ID NO:3] was tested, and the “cell binding activity compared with P-15 region / SEQ ID NO:1 peptide (in words)” value (cells [3]) was “as active, or more active, than a peptide having the entire P-15 region”, the “Relative Cell-Binding Activity” value (cells [3]) was 120 and the “inhibition of interactions between T-cells and collagen” value [4] was “markedly inhibited”.
For QGIAGQR [SEQ ID NO:4], the “Relative Cell-Binding Activity” value (cells [3]) was 60.
In the case of “human preangiotensinogen 1-14 (DRVYIHPFHLVIHN)”, the “% Inhibition of Cell Attachment” value ([2]; peptide 35 × 10^−6M) is reported as 12%, the “% of Maximal Cell Attachment” value ([2]; peptide 35 × 10^−6M) is reported as 88% and the “effect on the binding of cells” value [2] is reported as “did not affect the binding of cells to collagen to the extent shown by the inventive peptide”.
